Test results as given in publication PMC5993337, “De novo biosynthesis of sterols and fatty acids in the Trypanosoma brucei procyclic form: Carbon source preferences and metabolic flux redistributions” (PLoS Pathogens, 2018).

Target: T1, IVDH (isovaleryl-CoA dehydrogenase), his-tagged recombinant T. brucei IVDH (Trypanosoma brucei, UniProt Q387A0)
T1 construct: gene Tb11.55.0026; lacks N-terminal 13 residues (gene positions 41 to 1234 bp), 6 His codons at 3' end, pET28, E. coli BL21(DE3) with GroEL-ES
T1 sequence (Q387A0 14-411): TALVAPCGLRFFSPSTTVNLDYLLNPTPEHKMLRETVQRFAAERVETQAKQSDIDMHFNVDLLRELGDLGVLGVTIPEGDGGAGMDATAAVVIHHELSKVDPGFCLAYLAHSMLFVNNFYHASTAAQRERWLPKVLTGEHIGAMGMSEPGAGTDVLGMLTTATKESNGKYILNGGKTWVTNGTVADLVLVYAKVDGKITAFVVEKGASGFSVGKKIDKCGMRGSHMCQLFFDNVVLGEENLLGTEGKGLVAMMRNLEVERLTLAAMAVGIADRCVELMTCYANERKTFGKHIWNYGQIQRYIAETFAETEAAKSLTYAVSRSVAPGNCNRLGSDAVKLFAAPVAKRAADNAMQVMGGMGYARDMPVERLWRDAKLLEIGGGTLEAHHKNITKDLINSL
Experiment: spectrophotometric dye-reduction assay ([…],6-dichloroindophenol, […] nm)
Type: biochemical
Conditions: isovaleryl-CoA 52.5 uM, phenazine methosulfate 1.5 mM, FAD 10 uM, 100 mM KPi pH 7.0, 25 °C

SMILES: CC(C)CC(=O)SCCNC(=O)CCNC(=O)[C@H](O)C(C)(C)COP(=O)(O)OP(=O)(O)OC[C@H]1O[C@@H](n2cnc3c(N)ncnc32)[C@H](O)[C@@H]1OP(=O)(O)O [isovaleryl-CoA]
- spectrophotometric dye-reduction assay (2,6-dichloroindophenol, 600 nm): specific activity of the his-tagged recombinant T. brucei IVDH purified to homogeneity for its substrate
